One may read the IC50 as the concentration that gives 50% inhibition.

This assay relates to Plasmodium falciparum. Put plainly: Growth inhibition of chloroquine-resistant Plasmodium falciparum K1 by [3H]hypoxanthine uptake. The assay is classed as functional, organism-based.
“1-(1-Naphthalenyl)-3-ferrocenyl-2-propen-1-one” showed an IC50 of 47.4 µM.

The substance “1-(2,3,4-Trimethoxyphenyl)-3-ferrocenyl-2-propen-1-one” gave an IC50 of 22.5 µM.

“1-(2,4-Dihydroxyphenyl)-3-ferrocenyl-2-propen-1-one”: the 50% inhibitory concentration (IC50) was 31.5 µM.

The substance “1-(2,4-Dimethoxyphenyl)-3-ferrocenyl-2-propen-1-one” displayed an IC50 of 24.5 µM.

The substance “1-(2-Hydroxyphenyl)-3-ferrocenyl-2-propen-1-one” gave a concentration for half-maximal inhibition (IC50) of 73.5 µM.

Take “1-(2-Naphthalenyl)-3-ferrocenyl-2-propen-1-one”: the 50% inhibitory concentration (IC50) was determined as 21 µM.

The substance “1-(3-pyridyl)-3-ferrocenyl-2-propen-1-one” displayed a half-inhibitory concentration (IC50) of 4.6 µM.

For the substance “1-(4-Butoxyphenyl)-3-ferrocenyl-2-propen-1-one”, the IC50 stood at 80 µM.

Substance “1-(4-Ethoxyphenyl)-3-ferrocenyl-2-propen-1-one” displayed a half-maximal inhibitory concentration (IC50) of 200 µM. Against the preceding substance, the IC50 is about 2.5-fold higher.

In the case of “1-(4-Hydroxyphenyl)-3-ferrocenyl-2-propen-1-one”, the IC50 is 36 µM.

“1-(4-Methoxyphenyl)-3-ferrocenyl-2-propen-1-one”: the 50% inhibitory concentration (IC50) stood at 410 µM.

In the case of 1-(phenyl)-3-ferrocenyl-2-propen-1-one, the IC50 is 175 µM.

As to “1-ferrocenyl-3-(1-Naphthalenyl)-2-propen-1-one”, the concentration for half-maximal inhibition (IC50) was found to be 48.3 µM.

“1-ferrocenyl-3-(2,4-Dichlorophenyl)-2-propen-1-one”: the IC50 is 29.4 µM.

“1-ferrocenyl-3-(2,4-Difluorophenyl)-2-propen-1-one” gave an IC50 of 23.2 µM.

With “1-ferrocenyl-3-(2,4-Dimethoxyphenyl)-2-propen-1-one”, the half-maximal inhibitory concentration (IC50) worked out at 18 µM.

“1-ferrocenyl-3-(2-Chlorophenyl)-2-propen-1-one” yielded an IC50 of 42.4 µM.

In the case of “1-ferrocenyl-3-(2-Naphthalenyl)-2-propen-1-one”, the half-inhibitory concentration (IC50) turned out to be 73.5 µM.

Regarding “1-ferrocenyl-3-(3-Chlorophenyl)-2-propen-1-one”, the IC50 came out at 36.2 µM.

On to “1-ferrocenyl-3-(3-Quinolinyl)-2-propen-1-one”, for which the IC50 is 18.2 µM.

The substance “1-ferrocenyl-3-(3-pyridinyl)-2-propen-1-one” returned a concentration for half-maximal inhibition (IC50) of 17 µM.

Regarding “1-ferrocenyl-3-(4-Chlorophenyl)-2-propen-1-one”, half-maximal inhibition (IC50) required 14.5 µM.

Consider “1-ferrocenyl-3-(4-Cyanophenyl)-2-propen-1-one”, for which the IC50 is 26.5 µM.

With “1-ferrocenyl-3-(4-Fluorophenyl)-2-propen-1-one”, 12.1 µM corresponded to half-maximal inhibition (IC50).

As to “1-ferrocenyl-3-(4-Hydroxyphenyl)-2-propen-1-one”, inhibition was half-maximal at 20.6 µM (IC50).

“1-ferrocenyl-3-(4-Methoxyphenyl)-2-propen-1-one”: the half-maximal inhibitory concentration (IC50) is 17 µM.

Regarding “1-ferrocenyl-3-(4-Methylphenyl)-2-propen-1-one”, 147 µM corresponded to half-maximal inhibition (IC50).

Substance “1-ferrocenyl-3-(4-Nitrophenyl)-2-propen-1-one” displayed a 50% inhibitory concentration (IC50) of 5.1 µM.

Regarding “1-ferrocenyl-3-(4-Quinolinyl)-2-propen-1-one”, 14 µM corresponded to half-maximal inhibition (IC50). Compared with the last substance, the IC50 is about 2.7-fold higher.

For “1-ferrocenyl-3-(4-Trifluoromethylphenyl)-2-propen-1-one”, the midpoint of inhibition, the IC50, lay at 58.4 µM.

For the substance 1-ferrocenyl-3-(phenyl)-2-propen-1-one, half-maximal inhibition (IC50) was put at 19 µM. Against the preceding substance, the IC50 is about 3.1-fold lower.

For the origin of these results see ChEMBL document CHEMBL1134883, “Antimalarial activity of ferrocenyl chalcones” (Bioorg Med Chem Lett, 2002).
